From publication PMC6467514 (Chembiochem : a European journal of chemical biology, 2019) come the findings set out here.

For orientation: IC50 means the concentration at which inhibition is half-maximal. The low end stands for greater potency in that assay, the high end for weaker potency in that assay.

For assay [1], the target named is T1, adenosine deaminase (ADA) (Bos taurus, UniProt P56658).
T1 sequence (P56658 2-363): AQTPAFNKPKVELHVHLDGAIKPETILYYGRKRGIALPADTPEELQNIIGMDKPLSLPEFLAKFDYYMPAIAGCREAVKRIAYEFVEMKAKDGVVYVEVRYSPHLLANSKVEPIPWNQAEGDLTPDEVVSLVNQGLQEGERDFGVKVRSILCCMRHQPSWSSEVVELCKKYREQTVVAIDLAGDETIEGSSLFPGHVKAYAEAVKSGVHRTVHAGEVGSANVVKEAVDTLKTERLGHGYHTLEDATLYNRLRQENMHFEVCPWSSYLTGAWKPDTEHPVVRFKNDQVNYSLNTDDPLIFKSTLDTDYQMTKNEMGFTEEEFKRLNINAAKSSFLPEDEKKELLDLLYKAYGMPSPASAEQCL
The assay is described as follows: biochemical.

Assay [2] deals with T1, adenosine deaminase (ADA). As to the kind of experiment: fluorescence assay of tzA to tzI deamination, IC50 with Hill fit. The format is biochemical.
Assay [3] addresses T1, adenosine deaminase (ADA). Described as above. It counts as biochemical. This is another data set of the same source.
The target of assay [4] is T1, adenosine deaminase (ADA). The assay is described as follows: stopped-flow fluorescence kinetics of deamination to tzG. The format is biochemical.

In turn, `CCCCCC[C@H]([C@H](C)O)n1cnc2c(N)ncnc21` [EHNA] came in with an IC50 in assay [1] of 0.0232 ± 0.0042 µM.
With `CNc1cc(Cl)nc2c1ncn2[C@@H]1O[C@H](CO)[C@@H](O)[C@H]1O` [compound 8, 5-chloro-7-methylamino-1-deaza-purine riboside], in assay [2], the IC50 stood at 21 ± 8 µM.
`OC[C@H]1O[C@@H](n2cnc3c(NCc4ccccc4)cc(Cl)nc32)[C@H](O)[C@@H]1O` [compound 11, 5-chloro-7-benzylamino-1-deaza-purine riboside] showed an IC50 in assay [3] of 220 ± 70 µM.
For the compound `Nc1nc(N)c2nsc([C@@H]3O[C@H](CO)[C@@H](O)[C@H]3O)c2n1` [tz2-AA], the “stopped-flow fluorescence kinetics of deamination to tzG” value in assay [4] was “the ^tz2-AA HMM curve showed parabolic behaviour with increasing substrate concentration”.
